This assay has as its system RIL-175 orthotopic HCC. In words: Survival, orthotopic RIL-175 HCC in Rag1–/–/C57Bl/6 mice. As to conditions: regorafenib 10 mg/kg; Rag1–/– mice lacking functional T cells. In kind it is in vivo, mouse. As for the experimental part: Regorafenib was provided by Bayer and administered by oral gavage daily at a dose of 5, 10 and 20 mg/kg in 34% 1,2-propandiol (Sigma-Aldrich), 34% PEG400 (Sigma-Aldrich), 12% pluronic F68 (Thermo Fischer Scientific, Waltham, Massachusetts, USA), and 20% water, as per manufacturer’s recommendation. Mouse anti-PD1 antibody (clone RMP-014) was purchased from BioXcell (Lebanon, New Hampshire, USA) and Mouse IgG isotype control was purchased from Thermo Fischer Scientific. The STAT3 inhibitor LLL12 was purchased from BioVision (Milpitas, California, USA). Antimouse PD1 antibody or IgG (control) were given intraperitoneally at a dose of 10 mg/kg thrice weekly, as described.[11] Daily gavage of vehicle and intraperitoneal injection of 10 mg/kg of isotype-matched IgG were given as control treatments for anti-PD1 antibody. For the survival studies, moribund status was used as the end point and moribund was defined as symptoms of prolonged distress, >15% of weight loss compared with the starting date, body condition score >2 and tumor size of >24 mm in diameter.
All statistical analyzes were performed using Stata software, V.14.1 (StataCorp, College Station, Texas, USA). […] Quantitative variables were compared using Student’s t-test. […] Statistical analyses in the survival experiments were performed by Cox proportional hazard model and HR and 95% CIs were calculated as well.

On to `CNC(=O)c1cc(Oc2ccc(NC(=O)Nc3ccc(Cl)c(C(F)(F)F)c3)c(F)c2)ccn1` [regorafenib], for which the Survival result is “no significant benefit”.
